In one assay the target is Beta-galactosidase (Escherichia coli, UniProt Q8VNN2). The assay can be described thus: Dose response counterscreen for EBI2 assay utilizing the enzyme, b-galactosidase. The assay is classed as functional.
A short description of another assay: cells. In kind it is functional, cell-based.
Assay [1] deals with T1, Nuclear receptor subfamily 0 group B member 1 (Homo sapiens, UniProt P51843).
T1 sequence (P51843 whole entry): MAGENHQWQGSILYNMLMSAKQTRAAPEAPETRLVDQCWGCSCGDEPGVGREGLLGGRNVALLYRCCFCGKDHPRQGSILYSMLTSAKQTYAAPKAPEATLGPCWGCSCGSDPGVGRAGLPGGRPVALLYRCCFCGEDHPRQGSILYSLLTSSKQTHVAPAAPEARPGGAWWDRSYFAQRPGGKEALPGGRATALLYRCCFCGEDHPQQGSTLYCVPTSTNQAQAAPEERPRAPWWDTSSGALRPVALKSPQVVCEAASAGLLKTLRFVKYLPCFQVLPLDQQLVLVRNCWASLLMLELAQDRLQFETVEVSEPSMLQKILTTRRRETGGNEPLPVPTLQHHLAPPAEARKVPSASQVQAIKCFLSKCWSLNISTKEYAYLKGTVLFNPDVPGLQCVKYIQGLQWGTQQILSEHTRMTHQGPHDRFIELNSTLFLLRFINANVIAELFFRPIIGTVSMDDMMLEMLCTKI
The assay is classed as functional, cell-based.

Assay [2] has as its target FAD-linked sulfhydryl oxidase ALR (Homo sapiens, UniProt P55789). The assay can be described thus: inhibitors of human ALR sulfhydryl oxidase, dose response, biochemical, H2O2 detection, luminescence, cherry-pick (AID 493248).
The next assay deals with Genome polyprotein (dengue virus type 2, UniProt P29990). The assay can be described thus: Dengue-2 NS5 methyltransferase inhibitors, primary screen, biochemical, confirmation dose response (AID 588689). In kind it is functional.
Genome polyprotein, sequence (P29990 2492-3391 limits assumed): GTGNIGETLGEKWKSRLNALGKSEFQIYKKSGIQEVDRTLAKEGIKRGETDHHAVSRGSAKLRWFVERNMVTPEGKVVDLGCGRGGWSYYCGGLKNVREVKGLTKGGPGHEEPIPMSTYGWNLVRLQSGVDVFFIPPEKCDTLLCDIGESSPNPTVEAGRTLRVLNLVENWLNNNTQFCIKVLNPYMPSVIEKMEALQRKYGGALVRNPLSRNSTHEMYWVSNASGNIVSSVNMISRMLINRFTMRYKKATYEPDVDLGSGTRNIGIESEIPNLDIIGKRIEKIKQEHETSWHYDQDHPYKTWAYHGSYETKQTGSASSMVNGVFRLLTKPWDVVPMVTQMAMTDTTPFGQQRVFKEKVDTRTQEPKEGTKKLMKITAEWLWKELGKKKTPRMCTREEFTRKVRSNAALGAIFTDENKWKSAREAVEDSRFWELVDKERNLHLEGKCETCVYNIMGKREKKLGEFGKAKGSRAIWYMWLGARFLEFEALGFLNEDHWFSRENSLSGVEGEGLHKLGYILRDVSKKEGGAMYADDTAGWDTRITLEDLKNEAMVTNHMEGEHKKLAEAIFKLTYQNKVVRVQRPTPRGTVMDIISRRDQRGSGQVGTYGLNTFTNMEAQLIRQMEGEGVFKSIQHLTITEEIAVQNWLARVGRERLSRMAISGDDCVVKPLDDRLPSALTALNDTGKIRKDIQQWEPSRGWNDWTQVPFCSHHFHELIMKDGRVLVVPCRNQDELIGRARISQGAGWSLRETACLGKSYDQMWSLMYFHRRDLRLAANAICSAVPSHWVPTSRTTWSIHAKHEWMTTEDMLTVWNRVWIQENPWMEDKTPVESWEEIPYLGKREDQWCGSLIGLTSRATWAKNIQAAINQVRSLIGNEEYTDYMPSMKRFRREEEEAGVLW
Assay [3] deals with T2, Long-chain-fatty-acid--AMP ligase FadD28 (Mycobacterium tuberculosis, UniProt P9WQ59).
T2 sequence (P9WQ59 whole entry): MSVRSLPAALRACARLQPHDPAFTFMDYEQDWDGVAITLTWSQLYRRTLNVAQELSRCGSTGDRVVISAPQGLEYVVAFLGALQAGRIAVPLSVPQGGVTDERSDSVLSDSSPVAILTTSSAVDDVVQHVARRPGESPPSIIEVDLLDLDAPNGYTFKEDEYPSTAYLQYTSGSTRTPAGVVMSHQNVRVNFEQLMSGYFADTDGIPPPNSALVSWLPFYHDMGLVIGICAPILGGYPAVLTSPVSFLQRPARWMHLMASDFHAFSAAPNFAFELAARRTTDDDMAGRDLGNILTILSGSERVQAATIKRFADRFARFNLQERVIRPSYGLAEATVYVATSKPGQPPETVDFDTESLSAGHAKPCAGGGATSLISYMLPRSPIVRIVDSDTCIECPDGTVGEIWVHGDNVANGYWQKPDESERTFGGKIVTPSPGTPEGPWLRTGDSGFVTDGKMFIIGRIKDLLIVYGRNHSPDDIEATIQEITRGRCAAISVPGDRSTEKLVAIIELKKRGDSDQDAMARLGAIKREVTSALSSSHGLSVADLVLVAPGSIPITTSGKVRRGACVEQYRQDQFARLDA
The experiment in a line: Fluorescence polarization aasay to screen for inhibitors that compete for the binding of FadD28 to a bisubstrate Measured in Biochemical System Using Plate Reader - 2147-01_Inhibitor_Dose_CherryPick_Activity. The assay is classed as functional, Mycobacterium tuberculosis H37Rv.

In assay [4] the target is T3, DNA repair and recombination protein RAD54-like (Homo sapiens, UniProt Q92698).
T3 sequence (Q92698 whole entry): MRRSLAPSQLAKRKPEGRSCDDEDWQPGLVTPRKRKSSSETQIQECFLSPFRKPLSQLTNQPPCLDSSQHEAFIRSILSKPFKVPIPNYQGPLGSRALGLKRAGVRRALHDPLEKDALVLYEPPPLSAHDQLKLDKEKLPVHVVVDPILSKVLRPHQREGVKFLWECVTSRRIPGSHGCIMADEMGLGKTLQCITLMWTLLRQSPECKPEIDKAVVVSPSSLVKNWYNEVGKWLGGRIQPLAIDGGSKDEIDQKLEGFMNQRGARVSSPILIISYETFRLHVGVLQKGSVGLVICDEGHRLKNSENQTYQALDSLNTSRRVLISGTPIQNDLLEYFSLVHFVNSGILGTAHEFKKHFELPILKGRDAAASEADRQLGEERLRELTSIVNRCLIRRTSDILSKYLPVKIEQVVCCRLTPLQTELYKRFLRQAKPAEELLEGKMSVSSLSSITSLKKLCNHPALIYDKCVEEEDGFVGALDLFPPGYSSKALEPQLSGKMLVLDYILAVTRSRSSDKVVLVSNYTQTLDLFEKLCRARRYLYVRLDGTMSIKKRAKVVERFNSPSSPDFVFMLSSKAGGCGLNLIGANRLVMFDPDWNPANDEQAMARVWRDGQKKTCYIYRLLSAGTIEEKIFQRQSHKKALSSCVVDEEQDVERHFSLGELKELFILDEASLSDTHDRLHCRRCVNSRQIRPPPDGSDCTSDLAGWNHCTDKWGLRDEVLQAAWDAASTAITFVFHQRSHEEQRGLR
The assay can be described thus: inhibitors of human RAD54 branch migration, confirmation, biochemical, fluorescence, cherry-picked samples, dose series (AID 651657). In kind it is functional.

Assay [5] concerns the target T4, DNA repair protein RAD52 homolog (Homo sapiens, UniProt P43351).
T4 sequence (P43351 whole entry): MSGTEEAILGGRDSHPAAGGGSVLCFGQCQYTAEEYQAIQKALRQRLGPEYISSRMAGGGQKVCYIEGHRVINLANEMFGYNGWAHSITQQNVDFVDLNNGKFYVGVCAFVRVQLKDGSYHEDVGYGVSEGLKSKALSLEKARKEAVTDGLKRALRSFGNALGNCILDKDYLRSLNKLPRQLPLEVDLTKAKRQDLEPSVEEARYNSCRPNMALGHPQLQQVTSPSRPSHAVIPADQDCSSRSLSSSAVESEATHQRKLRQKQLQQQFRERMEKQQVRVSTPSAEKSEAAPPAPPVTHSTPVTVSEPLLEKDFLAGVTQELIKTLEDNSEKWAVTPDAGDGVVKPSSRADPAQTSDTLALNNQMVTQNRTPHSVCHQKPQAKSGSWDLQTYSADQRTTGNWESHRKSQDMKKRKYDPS
The assay is classed as functional, biochemical.

Assay [6] deals with T5, Hepatocyte nuclear factor 4-alpha (Homo sapiens, UniProt P41235).
T5 sequence (P41235 whole entry): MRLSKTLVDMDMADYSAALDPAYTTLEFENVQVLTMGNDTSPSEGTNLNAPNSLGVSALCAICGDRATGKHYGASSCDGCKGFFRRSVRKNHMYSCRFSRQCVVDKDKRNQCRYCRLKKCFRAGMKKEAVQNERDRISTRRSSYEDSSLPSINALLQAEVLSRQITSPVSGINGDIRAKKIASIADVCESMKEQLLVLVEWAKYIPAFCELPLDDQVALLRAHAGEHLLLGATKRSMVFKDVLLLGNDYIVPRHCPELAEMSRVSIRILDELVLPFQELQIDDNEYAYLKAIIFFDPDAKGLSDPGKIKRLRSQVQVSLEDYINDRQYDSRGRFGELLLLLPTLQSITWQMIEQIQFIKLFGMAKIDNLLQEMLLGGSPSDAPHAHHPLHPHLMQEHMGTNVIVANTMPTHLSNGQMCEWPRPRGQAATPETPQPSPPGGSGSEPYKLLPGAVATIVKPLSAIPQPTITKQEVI
In kind it is functional, cell-based.

Assay [7] has as its target T6, Sentrin-specific protease 1 (Homo sapiens, UniProt Q9P0U3).
T6 sequence (Q9P0U3 whole entry): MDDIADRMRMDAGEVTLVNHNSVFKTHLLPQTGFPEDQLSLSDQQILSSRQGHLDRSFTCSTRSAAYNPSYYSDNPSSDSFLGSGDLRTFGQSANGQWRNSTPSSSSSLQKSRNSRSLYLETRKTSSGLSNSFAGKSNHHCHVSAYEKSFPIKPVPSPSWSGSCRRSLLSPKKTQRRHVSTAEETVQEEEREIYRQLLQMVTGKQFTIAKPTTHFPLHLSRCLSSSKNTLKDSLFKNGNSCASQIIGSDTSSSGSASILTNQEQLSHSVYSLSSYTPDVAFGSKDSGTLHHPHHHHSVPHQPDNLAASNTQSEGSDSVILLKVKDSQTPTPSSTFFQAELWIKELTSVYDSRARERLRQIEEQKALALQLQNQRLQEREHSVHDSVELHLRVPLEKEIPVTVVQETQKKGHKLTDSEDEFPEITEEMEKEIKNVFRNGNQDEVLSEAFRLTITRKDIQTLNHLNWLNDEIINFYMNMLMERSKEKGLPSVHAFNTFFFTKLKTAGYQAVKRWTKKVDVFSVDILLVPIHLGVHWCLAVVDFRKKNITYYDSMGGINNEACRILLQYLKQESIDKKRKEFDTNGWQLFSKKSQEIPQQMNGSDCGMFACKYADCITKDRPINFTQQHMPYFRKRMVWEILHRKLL
The assay can be described thus: potency of human SENP1 inhibitors, dose response, biochemical, kinetic FRET (AID 651697). The conditions noted are these: read-out: IC50_Mean. In kind it is functional.

Assay [8] has as its target T6, Sentrin-specific protease 1. The experiment in a line: Dose response confirmation of small molecule inhibitors of the catalytic domain of the SUMO protease, SENP1 in a FRET assay. The conditions noted are these: read-out: IC50_Mean. In kind it is functional.
Assay [9] is described as follows: ZM109 Env clade C HIV-1 fusion inhibitors, dose response, HeLa effector, CEM target cells, luciferase, cherry-pick (AID 652058). In kind it is functional, cell-based.
Assay [10] is described as follows: inhibitors of clade B AD8 Env fusion, dose response, cell-based, cherry-pick (AID 652062).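 Note: luciferase signal from cell-cell fusion driven by HIV-1 clade B AD8 Env; potency is for inhibitors of fusion seen as a drop in luminescence.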 In kind it is functional.
Assay [11] in a line: Counterscreen for inhibitors of Trypanosoma brucei methionyl tRNA synthetase (MetRS): Luminescence-based cell-based high throughput dose response assay to identify compounds that are cytotoxic to Jurkat human T lymphocyte cells. The assay is classed as functional.
For assay [12], the target named is T7, Methionyl-tRNA synthetase, putative (Trypanosoma brucei brucei, UniProt Q38C91).
T7 sequence (Q38C91 whole entry): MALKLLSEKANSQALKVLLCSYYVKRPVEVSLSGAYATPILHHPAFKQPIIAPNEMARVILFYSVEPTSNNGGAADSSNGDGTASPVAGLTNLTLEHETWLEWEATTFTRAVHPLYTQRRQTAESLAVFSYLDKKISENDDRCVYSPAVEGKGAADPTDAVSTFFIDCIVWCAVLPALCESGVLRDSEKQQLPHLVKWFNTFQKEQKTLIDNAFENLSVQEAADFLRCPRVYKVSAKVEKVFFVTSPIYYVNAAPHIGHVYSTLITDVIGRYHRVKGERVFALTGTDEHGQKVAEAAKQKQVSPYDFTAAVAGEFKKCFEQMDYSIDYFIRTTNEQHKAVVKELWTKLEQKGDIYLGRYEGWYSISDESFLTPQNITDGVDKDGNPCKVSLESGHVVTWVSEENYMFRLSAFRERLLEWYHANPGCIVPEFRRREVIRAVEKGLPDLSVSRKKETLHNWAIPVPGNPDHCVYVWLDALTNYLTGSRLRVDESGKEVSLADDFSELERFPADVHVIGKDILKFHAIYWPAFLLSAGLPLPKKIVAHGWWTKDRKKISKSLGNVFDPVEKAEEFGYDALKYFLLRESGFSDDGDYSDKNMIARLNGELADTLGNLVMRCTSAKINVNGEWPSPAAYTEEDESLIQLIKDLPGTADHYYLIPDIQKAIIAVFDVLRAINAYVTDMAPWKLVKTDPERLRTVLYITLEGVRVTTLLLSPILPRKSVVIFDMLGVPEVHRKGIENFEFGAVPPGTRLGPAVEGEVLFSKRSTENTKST
In kind it is functional, Trypanosoma brucei brucei strain 927/4 GUTat10.1.

Active and inactive are the calls of the source. Where a SMILES comes first, the peptide text is derived from it. [ ]: non-standard residue; d: D form. The star is where a group is joined. ξ: configuration not given here. ξNMe2Val = CC(C)C(C(=O)*)N(C)C; NMeV = CN[CH](C(=O)O)C(C)C; NHBn = c1ccc(CN*)cc1 Where only a bound is given, the exact number is not on record here.

Beta-galactosidase, sequence (Q8VNN2 whole entry): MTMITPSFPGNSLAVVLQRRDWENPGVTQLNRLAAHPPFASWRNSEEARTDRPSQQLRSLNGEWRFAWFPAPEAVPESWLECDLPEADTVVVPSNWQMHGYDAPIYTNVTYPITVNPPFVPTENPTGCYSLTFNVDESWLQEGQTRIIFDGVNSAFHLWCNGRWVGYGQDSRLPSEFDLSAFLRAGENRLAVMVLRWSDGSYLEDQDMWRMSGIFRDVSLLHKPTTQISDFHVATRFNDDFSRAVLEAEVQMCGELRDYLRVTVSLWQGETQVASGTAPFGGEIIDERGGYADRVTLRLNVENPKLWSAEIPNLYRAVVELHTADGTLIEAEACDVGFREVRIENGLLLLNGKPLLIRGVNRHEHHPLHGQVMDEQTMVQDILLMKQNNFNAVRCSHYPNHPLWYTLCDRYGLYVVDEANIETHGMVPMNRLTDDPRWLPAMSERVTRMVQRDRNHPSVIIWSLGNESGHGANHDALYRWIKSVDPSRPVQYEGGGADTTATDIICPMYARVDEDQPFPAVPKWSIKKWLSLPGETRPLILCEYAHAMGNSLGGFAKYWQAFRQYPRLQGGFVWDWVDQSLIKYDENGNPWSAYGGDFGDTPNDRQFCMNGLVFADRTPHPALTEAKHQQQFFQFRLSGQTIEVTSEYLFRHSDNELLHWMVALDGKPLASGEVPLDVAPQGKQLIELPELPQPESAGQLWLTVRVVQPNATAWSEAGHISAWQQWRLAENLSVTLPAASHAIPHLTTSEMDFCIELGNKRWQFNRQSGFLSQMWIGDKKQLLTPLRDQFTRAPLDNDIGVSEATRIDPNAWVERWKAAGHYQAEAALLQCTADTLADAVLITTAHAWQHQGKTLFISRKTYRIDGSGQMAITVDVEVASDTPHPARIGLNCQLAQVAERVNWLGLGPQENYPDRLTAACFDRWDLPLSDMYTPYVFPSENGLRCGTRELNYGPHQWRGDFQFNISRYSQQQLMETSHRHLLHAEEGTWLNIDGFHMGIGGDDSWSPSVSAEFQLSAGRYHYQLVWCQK
FAD-linked sulfhydryl oxidase ALR, sequence (P55789 whole entry): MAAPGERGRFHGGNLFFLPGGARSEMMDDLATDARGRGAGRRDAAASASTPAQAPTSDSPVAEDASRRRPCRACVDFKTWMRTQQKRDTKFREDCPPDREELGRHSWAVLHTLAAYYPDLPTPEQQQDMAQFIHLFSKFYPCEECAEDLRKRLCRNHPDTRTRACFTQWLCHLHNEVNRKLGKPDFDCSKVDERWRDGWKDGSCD

On to `O=S(=O)(c1ccc(Cl)cc1)N1CCN(Cc2nc(O)c3ccc(Cl)cc3n2)CC1`, for which the IC50 at Beta-galactosidase was > 80 µM (inactive).

Take `CC(C)(C)OC(=O)N1CCC(C(=O)Nc2ccc3c(c2)CCC3)CC1`: the IC50 (in the assay “cells”; in assay [1]) was > 67.5 µM (inactive) throughout.

`O=C1C=C(c2ccc3ncccc3c2)C[C@@H](c2ccc(Cl)cc2)C1`: the IC50 on Beta-galactosidase is > 80 µM (inactive).

As to `O=C(O)c1ccc(Nc2nc3ccccc3nc2NS(=O)(=O)c2ccc(F)cc2)cc1`, the AC50 in [2] was > 100 µM (inactive); in assay [3] it was 62.1 µM (active). For the same compound, the IC50 at Genome polyprotein is 24.9 µM (active). Consider `CC(NC(=O)c1ccc2[nH]cnc2c1)c1ccccc1` (stereo not drawn), for which, in assay [3], the AC50 was 22.7 µM (active).

`CC(=O)Nc1cc(-c2cccc(C(=O)NCCN(C)C)c2)cn2c(-c3ccccc3)cnc12`: the values for the AC50 in assay [4] and in assay [5] were 33.5 µM (active) and 4.01 µM (active), respectively.

`N#Cc1ccc(C(C(=O)NCc2ccccc2)n2c(=O)c(-c3ccco3)nc3ccccc32)cc1` (stereo not drawn): in [6], the IC50 is 1.3 µM (active).

For `N#Cc1ccc(-c2nc3ccc(Br)cn3c2Cc2ccccc2C(F)(F)F)cc1`, the IC50 is 13.1 µM (active) in assay [7] and 11.4 µM (active) in [8]. As to `COc1ccc(C(C(=O)NC(C)(C)C)n2c(=O)c(-c3ccco3)nc3ccccc32)cc1` (stereo not drawn), the IC50 in assay [6] is 1.78 µM (active). On to `COc1cccc(-c2nc3nc(C)cc(C)n3c2Nc2c(C)cccc2C)c1`, for which the IC50 is 28.5 µM (inactive) in assay [7] and 15.4 µM (active) in assay [8]. Consider `Cc1cc(Nc2cccc(C(F)(F)F)c2)cc(=O)n1-c1cccc(C(F)(F)F)c1`, for which the AC50 in [9] is 1.85 µM (active); in assay [10] it was 9.49 µM (active). With `CC(C)Nc1ncnc2c1ncn2[C@H]1CN(Cc2ccc(Cl)cc2)C[C@@H](CO)O1`, the IC50 at Beta-galactosidase is > 80 µM (inactive). In the case of `COc1cc(OC)c(OC)cc1/C=N/Nc1nc2ccccc2[nH]1`, the values for the IC50 in assay [11] and in assay [12] were 83.3 µM (inactive) and 119 µM (inactive), respectively.

As for `CC(C)C(NC(=O)C(C(C)C)N(C)C)C(=O)N(C)C(C(=O)N1CCCC1C(=O)N1CCCC1C(=O)NCc1ccccc1)C(C)C` (stereo not drawn) (ξNMe2Val-V[NMeV]PP-NHBn; configuration not given here), the IC50 (in the assay “cells”; in assay [1]) was > 67.5 µM (inactive) in each case.
